Reference: the COVID Moonshot data (paper PMC7615835)
“And” between values parts separate entries of the source, which are not always exact repeats. Equal entries are not always repeated.

The compounds below were run against SARS-CoV-2 Main Protease (SARS-CoV-2) (UniProt P0DTD1).
For `COC(=O)[C@H]1C[C@H](NC(=O)C(c2cccnc2)N(C(=O)c2cocn2)c2ccc(C(C)(C)C)cc2)CN1C(=O)OC(C)(C)C` (stereo in doubt), the IC50 was 0.837 µM. For `O=C(NCCc1cccc(F)c1)C(c1cccnc1)N(C(=O)c1cocn1)c1cnn(-c2ccccc2)c1` (configuration not stated), the IC50 was 2.95 µM. Work on `CCS(=O)(=O)N1Cc2ccc(Cl)cc2C(C(=O)Nc2cncc3ccccc23)C1` (configuration not stated) yielded an IC50 of 0.242 µM. For `O=C(CN1CC(C(=O)Nc2cncc3cc(F)ccc23)c2cc(Cl)ccc2C1=O)NC1COC1` (configuration not stated), the IC50 was 1.01 µM. `Cc1nc2scc(C)n2c1CN1CCN(Cc2ccsc2)CC1` was tested, and the IC50 was > 99.5 µM. With `Cc1cc(NC(=O)C2CCOc3ccc(Cl)cc32)ncc1N` (configuration not stated) the IC50 was > 99.5 µM. `Cc1nnc(CNc2ccc3nnc(-c4ccccc4)n3n2)o1` was tested, and the IC50 was > 99.5 µM. With `CC(C)(C)c1ccc(N(C(=O)c2cc(=O)[nH]c(=O)[nH]2)C(C(=O)NCCc2cccc(F)c2)c2cccnc2)cc1` (configuration not stated) the IC50 was > 99.5 µM. `O=C(C[C@]1(C(=O)Nc2cncc3ccccc23)CCOc2ccc(Cl)cc21)N1CCN(C2CCOC2)CC1` (stereo in doubt) was tested, and the IC50 was 1.99 µM. In the case of `N#CCC(=O)N1CCc2ccc(Cl)cc2C1C(=O)Nc1cncc2ccccc12` (configuration not stated), the IC50 is reported as 6.51 µM. `Cn1c(=O)[nH]c(=O)c2ccc(C(=O)N(c3ccc(C(C)(C)C)cc3)C(C(=O)NCCc3cccc(F)c3)c3cccnc3)nc21` (configuration not stated) was tested, and the IC50 was > 99.5 µM. Compound `Cc1ccc(Cl)cc1N1CCN(c2cc(Cl)cc(CC(=O)Nc3cncc4ccccc34)c2)CC1` has an IC50 of 3.37 µM. `Cc1ccncc1NC(=O)Cc1ccccc1N` was tested, and the IC50 was > 99.5 µM. In the case of `COCc1csc(CNC(=O)c2ncc(Cl)cc2Cl)c1`, the IC50 is reported as > 99.5 µM. Work on `N#CCS(=O)(=O)N1Cc2ccc(Cl)cc2C(C(=O)Nc2cncc3ccccc23)C1` (configuration not stated) yielded an IC50 of 0.33 µM. `O=C1N(Cc2cccc(Cl)c2)CCN1c1nccc2n[nH]cc12` showed an IC50 of 4.56 µM. With `CC(C)(C)c1ccc(N(C(=O)c2nccs2)C(C(=O)NCCc2cccc(F)c2)c2cccnc2)cc1` (configuration not stated) the IC50 was 0.8 µM. With `Cc1ncc(CO)c(CNc2cc(Cl)cc(CC(=O)Nc3cncc4ccccc34)c2)c1O` the IC50 was 9.11 µM. For `O=C(Nc1cnccc1CO)[C@@H]1COc2ccc(Cl)cc21` (stereo in doubt), the IC50 was 42.7 µM and 42 µM. Work on `O=C(Cc1cc(Cl)cc(Nc2ccc(F)cc2C(F)(F)F)c1)Nc1cncc2ccccc12` yielded an IC50 of 1.56 µM. `O=C(Nc1nncn1C1CC1)C1CCS(=O)(=O)c2ccccc21` (configuration not stated) gave an IC50 of 68.9 µM. For `COc1ccc(-c2cc(COc3cc(Cl)cc(CC(=O)Nc4cnccc4C)c3)on2)cc1`, the IC50 was 62.7 µM and 81.5 µM. Work on `COCc1ccc(N(C(=O)c2cnc[nH]2)C(C(=O)NCCc2cccc(F)c2)c2cccnc2)cc1` (configuration not stated) yielded an IC50 of 62.9 µM. `CCNC(=O)CN1CC(C(=O)Nc2cncc3cc(F)ccc23)c2cc(Cl)ccc2C1=O` (configuration not stated) gave an IC50 of 0.161 µM. `O=C(Cc1cc(Cl)cc(NCc2ccc(Br)cc2F)c1)Nc1cncc2ccccc12` gave an IC50 of 3.49 µM. For `O=C(NCCc1cccc(F)c1)C(c1cccnc1)N(C(=O)c1cocn1)c1ccc2c(c1)CCCS2(=O)=O` (configuration not stated), the IC50 was > 99.5 µM. For `O=C(Nc1cncc2ccccc12)[C@H]1COc2ccc(Cl)cc2C1` (stereo in doubt), the IC50 was > 99.5 µM. With `O=C(c1cccc(N2CCCNC2=O)c1)N1CCC(C2CCNC2)CC1` (configuration not stated) the IC50 was > 99.5 µM. Compound `O=C1NCC(C(=O)Nc2cnc3ccccn23)c2cc(Cl)ccc21` (configuration not stated) has an IC50 of 5.93 µM. With `Cc1nc2ccc(NC(=O)NCc3ccc4[nH]c(=O)[nH]c4c3)cc2o1` the IC50 was > 99.5 µM. `Cc1ccncc1NC(=O)Cc1cc(Cl)cc(NC2CC2C(F)(F)F)c1` (configuration not stated) showed an IC50 of 25.3 µM. In the case of `C=CS(=O)(=O)N1CCN(S(=O)(=O)c2ccccc2)CC1`, the IC50 is reported as > 99.5 µM. For `N#Cc1ccc(Cl)c(Nc2cc(Cl)cc(CC(=O)Nc3cncc4ccccc34)c2)c1`, the IC50 was 1.99 µM. For `O=C(CCl)N1CCN(C(c2ccccc2)C2CCCCC2)CC1` (configuration not stated), the IC50 was 5.72 µM and 2.98 µM. For `C[C@H](C/C=C/C(C)(C)O)[C@H]1CC[C@@]2(C)[C@@H]3C=C[C@@]45OC[C@]3(CC[C@]12C)[C@@H]4CC[C@H](O)C5(C)C` (stereo in doubt), the IC50 was > 99.5 µM. With `Cc1ccncc1NC(=O)Cc1cc(Cl)cc(OCc2ncc[nH]2)c1` the IC50 was > 99.5 µM. Compound `CC(C)Cn1cc(NC(=O)NCc2ccco2)c2ccccc2c1=O` has an IC50 of 29.6 µM. In the case of `Cn1cc(C(=O)N(c2ccc(C(C)(C)C)cc2)C(C(=O)NCCc2cccc(F)c2)c2cccnc2)ncc1=O` (configuration not stated), the IC50 is reported as > 99.5 µM. With `O=C1Cc2ccccc2N(C(=O)Cc2cccc(Cl)c2)C1` the IC50 was > 99.5 µM. For `COCCN1CCc2ccc(Cl)cc2C1C(=O)Nc1cncc2ccccc12` (configuration not stated), the IC50 was 1.88 µM. In the case of `COc1cc(N(C(=O)c2cocn2)C(C(=O)NCCc2cccc(F)c2)c2cccnc2)ccc1S(=O)(=O)N(C)C` (configuration not stated), the IC50 is reported as > 99.5 µM. Work on `CNS(=O)(=O)N1CCc2ccc(Cl)cc2C1C(=O)Nc1cncc2ccccc12` (configuration not stated) yielded an IC50 of 1.55 µM. `O=C(CN1CC(C(=O)Nc2cncc3ccccc23)c2cc(Cl)ccc2C1=O)NCC(F)(F)F` (configuration not stated) gave an IC50 of 0.34 µM. In the case of `O=C(NCCc1cccc(F)c1)C(c1cccnc1)N(C(=O)c1cocn1)c1ccccc1` (configuration not stated), the IC50 is reported as 89.2 µM. In the case of `O=C(Cc1cccc(Cl)c1)Nc1cccc2cn[nH]c12`, the IC50 is reported as > 99.5 µM. With `Cc1cn2nc(NCc3ccc4ncccc4c3)sc2n1` the IC50 was > 99.5 µM. In the case of `Cc1nc2sccn2c1CN(C)C(=O)c1cnc2sccn2c1=O`, the IC50 is reported as > 99.5 µM.
